# Assay results reported in PMC9005681, “Use of AD Informer Set compounds to explore validity of novel targets in Alzheimer's disease pathology” (Alzheimer's & Dementia : Translational Research & Clinical …, 2022).
# Legend:
# [1] = target: T1, cloned human or rodent CNS receptors, channels, and transporters (PDSP panel) (Homo sapiens, UniProt P08172); assay: PDSP GPCR panel primary binding assays at 10 μM; conditions: M2, primary assay
# T1 construct: expressed in transfected cells
# T1 sequence (P08172 1-466): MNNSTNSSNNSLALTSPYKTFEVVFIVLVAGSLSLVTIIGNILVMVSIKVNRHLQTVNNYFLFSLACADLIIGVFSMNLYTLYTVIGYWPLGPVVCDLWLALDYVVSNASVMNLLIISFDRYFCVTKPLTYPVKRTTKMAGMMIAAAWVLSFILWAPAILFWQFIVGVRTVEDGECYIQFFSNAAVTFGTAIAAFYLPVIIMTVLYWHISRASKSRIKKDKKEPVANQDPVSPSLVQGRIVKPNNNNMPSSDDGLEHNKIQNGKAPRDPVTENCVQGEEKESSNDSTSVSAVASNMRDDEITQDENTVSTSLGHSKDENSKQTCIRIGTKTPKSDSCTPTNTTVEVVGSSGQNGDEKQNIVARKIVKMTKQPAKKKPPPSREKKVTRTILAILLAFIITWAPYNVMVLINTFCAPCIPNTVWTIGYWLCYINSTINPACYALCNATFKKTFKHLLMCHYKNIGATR
# Procedure: (§1) GPCR panel: Screening against the receptors within the PDSP panel offers an assessment of off-target pharmacological activity at cloned human or rodent CNS receptors, channels, and transporters that could confound CNS-related phenotypes. A total of 46–47 primary binding assays were run in quadruplicate on these compounds at 10 μM, with follow-up secondary binding assays in 11-point dose-response in triplicate for select compounds versus select receptors. Secondary binding assays were executed for all receptors where test compound displaced an average of >50% of radio-labeled standard ligand. As an exception, no secondary assays were carried out for H3, PBR, or GABAA. […]
# [2] = target: T2, cloned human or rodent CNS receptors, channels, and transporters (PDSP panel) (Homo sapiens, UniProt P08908); assay: PDSP GPCR panel primary binding assays at 10 μM; conditions: Receptor 5-HT1A, primary assay, 10 μM
# T2 construct: expressed in transfected cells
# T2 sequence (P08908 1-422): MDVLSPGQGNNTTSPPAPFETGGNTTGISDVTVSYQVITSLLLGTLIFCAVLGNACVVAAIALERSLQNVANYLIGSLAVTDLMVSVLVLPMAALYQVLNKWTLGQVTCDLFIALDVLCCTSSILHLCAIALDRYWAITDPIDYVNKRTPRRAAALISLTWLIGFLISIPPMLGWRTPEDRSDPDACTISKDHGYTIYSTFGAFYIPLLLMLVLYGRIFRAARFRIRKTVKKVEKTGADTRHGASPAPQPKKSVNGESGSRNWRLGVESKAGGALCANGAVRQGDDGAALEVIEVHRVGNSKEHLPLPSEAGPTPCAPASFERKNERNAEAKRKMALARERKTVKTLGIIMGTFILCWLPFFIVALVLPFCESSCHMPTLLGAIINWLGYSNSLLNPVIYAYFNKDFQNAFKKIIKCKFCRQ
# Procedure: as §1
# [3] = target: T3, cloned human or rodent CNS receptors, channels, and transporters (PDSP panel) (Homo sapiens, UniProt P14416); assay: PDSP GPCR panel primary binding assays at 10 μM; conditions: Receptor D2, primary assay, 10 μM
# T3 construct: expressed in transfected cells
# Procedure: as §1
# [4] = target: T4, cloned human or rodent CNS receptors, channels, and transporters (PDSP panel) (Homo sapiens, UniProt P21918); assay: PDSP GPCR panel primary binding assays at 10 μM; conditions: Receptor D5, primary assay, 10 μM
# T4 construct: expressed in transfected cells
# Procedure: as §1
# [5] = target: T5, cloned human or rodent CNS receptors, channels, and transporters (PDSP panel) (Homo sapiens, UniProt P23975); assay: PDSP GPCR panel primary binding assays at 10 μM; conditions: primary assay
# T5 construct: expressed in transfected cells
# Procedure: as §1
# [6] = target: T6, cloned human or rodent CNS receptors, channels, and transporters (PDSP panel) (Homo sapiens, UniProt P28222); assay: PDSP GPCR panel primary binding assays at 10 μM; conditions: Receptor 5-HT1B, primary assay, 10 μM
# T6 construct: expressed in transfected cells
# Procedure: as §1
# [7] = target: T7, cloned human or rodent CNS receptors, channels, and transporters (PDSP panel) (Homo sapiens, UniProt P35462); assay: PDSP GPCR panel primary binding assays at 10 μM; conditions: D3, primary assay
# T7 construct: expressed in transfected cells
# Procedure: as §1
# [8] = target: T8, cloned human or rodent CNS receptors, channels, and transporters (PDSP panel) (Homo sapiens, UniProt P41595); assay: PDSP GPCR panel primary binding assays at 10 μM; conditions: Receptor 5-HT2B, primary assay, 10 μM
# T8 construct: expressed in transfected cells
# Procedure: as §1
# [9] = target: T9, cloned human or rodent CNS receptors, channels, and transporters (PDSP panel) (Homo sapiens, UniProt P50406); assay: PDSP GPCR panel primary binding assays at 10 μM; conditions: Receptor 5-HT6, primary assay, 10 μM
# T9 construct: expressed in transfected cells
# Procedure: as §1
# [10] = Snapshot IV PK in CD1 mice; assay type: in vivo
# Procedure: PK data: For snapshot PK studies, pooled plasma was analyzed at 0.5h, 1h, 2h, and 4h following
# a single IV dose (3 mg/kg) in CD1 mice (2 mice per cohort) for each compound (Table 2). […]
# cellular system = test system: cellular system; parameters: method as in column References for potency and dosing (the 5th table c13); conditions: published data; References for potency and dosing; cited from earlier work
# [11] = cited from earlier work
# T6 sequence (P28222 whole entry): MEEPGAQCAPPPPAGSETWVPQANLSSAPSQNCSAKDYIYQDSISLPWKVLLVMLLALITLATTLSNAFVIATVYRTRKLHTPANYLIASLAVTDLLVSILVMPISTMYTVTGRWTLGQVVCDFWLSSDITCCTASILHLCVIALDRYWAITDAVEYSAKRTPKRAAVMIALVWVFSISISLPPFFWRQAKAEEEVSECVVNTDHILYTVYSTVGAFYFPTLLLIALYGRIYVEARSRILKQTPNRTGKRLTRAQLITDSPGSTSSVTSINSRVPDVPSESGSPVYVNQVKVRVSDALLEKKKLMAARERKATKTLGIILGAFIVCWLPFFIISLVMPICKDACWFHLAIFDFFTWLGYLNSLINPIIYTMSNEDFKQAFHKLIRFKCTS
# T9 sequence (P50406 whole entry): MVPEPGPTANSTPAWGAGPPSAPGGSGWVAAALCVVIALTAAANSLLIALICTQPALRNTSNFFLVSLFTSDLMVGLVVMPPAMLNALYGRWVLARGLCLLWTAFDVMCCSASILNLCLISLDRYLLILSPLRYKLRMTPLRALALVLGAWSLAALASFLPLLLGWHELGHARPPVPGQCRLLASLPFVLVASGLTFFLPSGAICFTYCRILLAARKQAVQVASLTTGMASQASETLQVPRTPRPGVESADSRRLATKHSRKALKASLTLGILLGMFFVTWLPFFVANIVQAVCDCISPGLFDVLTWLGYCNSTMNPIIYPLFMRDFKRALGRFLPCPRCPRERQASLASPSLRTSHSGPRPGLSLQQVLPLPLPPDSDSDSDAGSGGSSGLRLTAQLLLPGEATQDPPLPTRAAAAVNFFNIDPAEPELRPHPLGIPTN
# T7 sequence (P35462 whole entry): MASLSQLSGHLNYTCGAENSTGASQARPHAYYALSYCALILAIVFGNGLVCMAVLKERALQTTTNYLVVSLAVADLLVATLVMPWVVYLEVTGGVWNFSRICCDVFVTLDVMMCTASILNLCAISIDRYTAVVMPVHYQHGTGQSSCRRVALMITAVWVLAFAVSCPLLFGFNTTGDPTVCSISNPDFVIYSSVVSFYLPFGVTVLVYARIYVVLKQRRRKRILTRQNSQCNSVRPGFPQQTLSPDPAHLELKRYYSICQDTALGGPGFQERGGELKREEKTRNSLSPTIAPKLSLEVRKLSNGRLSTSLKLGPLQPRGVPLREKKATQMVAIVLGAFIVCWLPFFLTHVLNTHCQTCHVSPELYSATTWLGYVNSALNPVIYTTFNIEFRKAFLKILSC
# T3 sequence (P14416 whole entry): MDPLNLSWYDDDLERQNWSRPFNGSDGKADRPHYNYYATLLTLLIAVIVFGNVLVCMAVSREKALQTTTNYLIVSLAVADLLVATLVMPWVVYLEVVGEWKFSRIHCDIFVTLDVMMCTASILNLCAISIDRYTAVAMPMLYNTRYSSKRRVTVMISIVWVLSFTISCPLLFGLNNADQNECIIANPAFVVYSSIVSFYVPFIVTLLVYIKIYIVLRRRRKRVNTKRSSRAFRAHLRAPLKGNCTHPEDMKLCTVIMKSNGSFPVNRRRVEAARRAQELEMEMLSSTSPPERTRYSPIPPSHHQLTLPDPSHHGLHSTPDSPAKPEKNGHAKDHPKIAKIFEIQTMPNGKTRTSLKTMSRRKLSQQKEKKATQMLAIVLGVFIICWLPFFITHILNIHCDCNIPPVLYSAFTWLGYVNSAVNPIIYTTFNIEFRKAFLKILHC
# T5 sequence (P23975 whole entry): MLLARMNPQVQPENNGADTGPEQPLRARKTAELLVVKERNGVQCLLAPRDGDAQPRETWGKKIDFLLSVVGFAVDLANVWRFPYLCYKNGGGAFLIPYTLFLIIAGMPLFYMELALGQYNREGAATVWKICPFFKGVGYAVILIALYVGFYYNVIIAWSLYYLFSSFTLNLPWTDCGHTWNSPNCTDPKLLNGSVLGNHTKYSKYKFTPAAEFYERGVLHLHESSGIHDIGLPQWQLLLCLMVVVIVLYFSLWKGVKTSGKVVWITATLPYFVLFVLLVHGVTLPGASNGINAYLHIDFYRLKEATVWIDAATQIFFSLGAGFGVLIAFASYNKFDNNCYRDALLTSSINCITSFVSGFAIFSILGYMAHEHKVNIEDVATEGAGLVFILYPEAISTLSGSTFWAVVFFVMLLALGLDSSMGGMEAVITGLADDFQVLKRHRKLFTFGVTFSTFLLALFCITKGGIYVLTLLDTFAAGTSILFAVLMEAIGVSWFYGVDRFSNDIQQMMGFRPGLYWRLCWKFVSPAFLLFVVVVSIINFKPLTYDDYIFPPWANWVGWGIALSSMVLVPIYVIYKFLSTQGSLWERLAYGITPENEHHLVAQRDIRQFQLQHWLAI
# T8 sequence (P41595 whole entry): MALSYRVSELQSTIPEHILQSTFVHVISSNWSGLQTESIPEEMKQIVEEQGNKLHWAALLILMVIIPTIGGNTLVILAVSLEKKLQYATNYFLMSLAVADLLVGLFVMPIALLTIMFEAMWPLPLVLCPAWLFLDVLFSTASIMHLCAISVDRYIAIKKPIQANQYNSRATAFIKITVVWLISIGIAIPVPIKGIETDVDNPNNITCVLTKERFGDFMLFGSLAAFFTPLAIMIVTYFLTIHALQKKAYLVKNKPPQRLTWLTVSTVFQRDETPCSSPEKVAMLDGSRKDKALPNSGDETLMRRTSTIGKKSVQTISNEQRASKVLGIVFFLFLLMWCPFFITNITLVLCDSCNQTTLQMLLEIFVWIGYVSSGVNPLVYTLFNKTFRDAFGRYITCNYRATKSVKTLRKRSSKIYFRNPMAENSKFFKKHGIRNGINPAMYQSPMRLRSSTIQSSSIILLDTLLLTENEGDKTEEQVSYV
# T4 sequence (P21918 whole entry): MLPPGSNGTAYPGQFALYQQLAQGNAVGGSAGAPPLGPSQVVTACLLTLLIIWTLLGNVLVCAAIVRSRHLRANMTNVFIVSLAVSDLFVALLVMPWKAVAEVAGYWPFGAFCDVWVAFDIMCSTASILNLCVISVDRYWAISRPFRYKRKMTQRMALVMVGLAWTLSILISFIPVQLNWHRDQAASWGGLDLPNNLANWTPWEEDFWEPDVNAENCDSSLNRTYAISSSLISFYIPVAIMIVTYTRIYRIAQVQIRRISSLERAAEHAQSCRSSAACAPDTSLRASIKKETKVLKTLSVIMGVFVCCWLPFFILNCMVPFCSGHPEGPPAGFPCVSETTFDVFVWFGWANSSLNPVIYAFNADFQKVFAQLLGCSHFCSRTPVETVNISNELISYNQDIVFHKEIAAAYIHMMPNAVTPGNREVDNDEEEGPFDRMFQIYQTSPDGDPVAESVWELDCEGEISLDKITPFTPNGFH
compound,measurement,setting,value
"O=c1oc2ccccc2cc1-c1cn2cc(Cc3ccc(F)cc3)sc2n1 [UNC10302680A, iMDK]",Mean %,[1]; mean inhibition,-8.2%
same,Inhibition 1,[1]; replicate 1,-12.5%
same,Inhibition 2,[1]; replicate 2,-5.38%
same,Inhibition 3,[1]; replicate 3,-3.9%
same,Inhibition 4,[1]; replicate 4,-11.03%
same,Inhibition 1,[2],5.77%
same,Inhibition 2,[2],4.57%
same,Inhibition 3,[2],-6.98%
same,Inhibition 4,[2],3.71%
same,Mean %,[2]; mean of Inhibition 1-4,1.77%
same,Inhibition 1,[3],11.41%
same,Inhibition 2,[3],-7.84%
same,Inhibition 3,[3],-2.59%
same,Inhibition 4,[3],7.52%
same,Mean %,[3]; mean of Inhibition 1-4,2.13%
same,Inhibition 1,[4],22.41%
same,Inhibition 2,[4],16.72%
same,Inhibition 3,[4],-1.22%
same,Inhibition 4,[4],7.82%
same,Mean %,[4]; mean of Inhibition 1-4,11.43%
same,Mean %,"[5]; NET, mean inhibition",3.1%
same,Inhibition 1,"[5]; NET, replicate 1",-7.15%
same,Inhibition 2,"[5]; NET, replicate 2",-15.77%
same,Inhibition 3,"[5]; NET, replicate 3",-1.08%
same,Inhibition 4,"[5]; NET, replicate 4",36.38%
same,Inhibition 1,"[5]; Receptor NET, 10 μM",34.12%
same,Inhibition 2,"[5]; Receptor NET, 10 μM",0.12%
same,Inhibition 3,"[5]; Receptor NET, 10 μM",-3.41%
same,Inhibition 4,"[5]; Receptor NET, 10 μM",-3.8%
same,Mean %,"[5]; Receptor NET, 10 μM, mean of Inhibition 1-4",6.76%
same,Inhibition 1,[6],28.3%
same,Inhibition 2,[6],-13.17%
same,Inhibition 3,[6],0.98%
same,Inhibition 4,[6],-13.17%
same,Mean %,[6]; mean of Inhibition 1-4,0.74%
same,Mean %,[7]; mean inhibition,-15.93%
same,Inhibition 1,[7]; replicate 1,-10.82%
same,Inhibition 2,[7]; replicate 2,-16.8%
same,Inhibition 3,[7]; replicate 3,-16.41%
same,Inhibition 4,[7]; replicate 4,-19.69%
same,Inhibition 1,[8],9.18%
same,Inhibition 2,[8],-38.65%
same,Inhibition 3,[8],-23.13%
same,Inhibition 4,[8],-31.52%
same,Mean %,[8]; mean of Inhibition 1-4,-21.03%
same,Inhibition 1,[9],-5.99%
same,Inhibition 2,[9],-28.7%
same,Inhibition 3,[9],-13.62%
same,Inhibition 4,[9],-18.86%
same,Mean %,[9]; mean of Inhibition 1-4,-16.79%
same,clearance,"[10]; CD1, mouse, plasma, iv, 3 mg/kg",37.8 mL/min/kg
same,Cmax,"[10]; CD1, plasma, mouse, 3.0 mg/kg",1570 ng/mL
same,half-life,"[10]; CD1, plasma, mouse, 3.0 mg/kg",1.16 h
same,Vd,"[10]; CD1, plasma, mouse, 3.0 mg/kg, read-out: Vss",2.61 L/kg
same,Reported as cell active (<10 μM),cellular system,Y (Published data supports that the compound is active in a cellular system when dosed at 10 μM (Y/N))
same,Kinetic solubility,"[11]; aqueous, neutral pH (7.4)",<1.1 µM
same,Kinetic solubility (in words),[11]; kinetic solubility experiments,poor kinetic solubility
